In patent US12466856B2, “Echinocandin analogues and preparation method therefor” (SHANGHAI SENHUI MEDICINE CO., LTD., priority 2019, dated 2025) one finds MIC data, which are given here for six compounds.

The structures appear in SMILES notation. Like-named read-outs stand apart in the source and are kept apart here. Starred links: 1 amine or outer side, 2 acyl side, 3 side chain; linkers in the order of their positions; H or OH if unused. Positions of bridges follow the written chain, without caps; N, C: chain ends. Non-standard residues stand in square brackets, D forms with d. Residues, ends and D or L forms follow the SMILES beside them. *: point of attachment. Orn(4R-OH,5R-OCH2CH2NMe3+) = C[N+](C)(C)CCO[C@@H](N[*:3])[C@H](O)C[C@H](N[*:1])C(=O)[*:2]; hTyr(3S-OH,4S-OH) = N[C@H](C(=O)O)[C@H](O)[C@@H](O)c1ccc(O)cc1; X2 = CCCCCCc1ccc(-c2ccc(-c3ccc(C(=O)*)cc3)cc2)cc1; X3 = CCCCCNc1ccc(-c2ccc(-c3ccc(C(=O)*)cc3)cc2)cc1; Pro(3S-OH,4S-Me) = C[C@H]1CN[C@H](C(=O)O)[C@H]1O; Hyp = O=C(O)[C@@H]1C[C@@H](O)CN1

Type in all cases: cell-based
Experiment [1] concerns Candida albicans ATCC 90028. As to the kind of experiment: MIC assay (CLSI M27-A3), Candida albicans ATCC 90028. As to conditions: Candida albicans. The method, then: (§1) After a test compound was serially diluted, an MIC (minimum inhibitory concentration) assay was performed on the standard Candida strain and an MEC (minimum effective concentration) assay on the standard Aspergillus strain. The MIC assay was performed according to the guidelines of the Clinical and Laboratory Standards Institute (CLSI M27-A3) and the MEC assay according to the guidelines of the Clinical and Laboratory Standards Institute (CLSI M38-A2).
(§2) The frozen strain was passaged at least twice, and a single colony was picked and resuspended in normal saline or sterile water in a tube. The suspension was vortexed and adjusted to 0.5 McF (1×10^6 to 5×10^6 CFU/mL) using a spectrophotometer at wavelength 530 nm. The suspension was 50-fold diluted with normal saline and then 20-fold diluted with 1×RPMI 1640 broth (1×10^3 to 5×10^3 CFU/mL). 10 μL of the suspension was applied to an SDA plate for colony counting, with a range from about 10 to 50 single colonies.
At this time, the bacterium concentration in each well should be 0.5×10^3 to 2.5×10^3 CFU/mL. […]
(§3) Yeast-type fungi: A disposable sealing film was applied to the 96-well plate, and the mixture was well mixed by shaking. Observation was performed through a plate reader with the naked eye. Comparisons were made to the growth control, and the minimum compound concentration corresponding to ≥50% growth inhibition was defined as MIC. Pictures were taken and saved using an automatic plate reader.

Experiment [2] deals with Candida albicans ATCC 44858. Description: MIC assay (CLSI M27-A3), Candida albicans ATCC 44858. To be noted: Candida albicans. The method, then: as §1, §2
(§4) At this time, the bacterium concentration in each well should be 0.5×10^3 to 2.5×10^3 CFU/mL.
(§5) For echinocandin drugs, Aspergillus was incubated at 28° C. for 21-26 h, and then the MEC results were read.
as §3

The test system of experiment [3] is Candida glabrata ATCC 36583. Description: MIC assay (CLSI M27-A3), Candida glabrata ATCC 36583. To be noted: Nakaseomyces glabratus. As to the method: as §1, §2, §4, §5, §3
Experiment [4] deals with Candida albicans (azole drug-resistant strain) R357. Description: MIC assay (CLSI M27-A3), Candida albicans azole drug-resistant strain R357. As to conditions: Candida albicans, read-out: MIC, Candida albicans (azole drug-resistant strain) R357. As to the method:
as §1, §2, §4, §5, §3

Experiment [5] concerns Candida albicans (azole drug-resistant strain) R358. As to the kind of experiment: MIC assay (CLSI M27-A3), Candida albicans azole drug-resistant strain R358. To be noted: Candida albicans, read-out: MIC, Candida albicans (azole drug-resistant strain) R358. The method, then:
as §1, §2, §4, §5, §3

Experiment [6] deals with Candida tropicalis (amphotericin-resistant strain) ATCC 200956. Description: microbe, parasite or virus in culture. To be noted: Candida tropicalis, ATCC200956, read-out: MIC, Candida tropicalis (amphotericin-resistant strain) ATCC 200956. The method, then: as §1, §2, §4, §5, §3
[7] abbreviates: ATCC90028, 24 h, read-out: MIC, Candida albicans ATCC 90028.
The mark [8] stands for this setting: ATCC90028, read-out: MIC, Candida albicans + 50% human serum ATCC 90028.
[9] abbreviates: ATCC44858, read-out: MIC, Candida albicans ATCC 44858.
Where [10] appears, read: ATCC36583, read-out: MIC, Candida glabrata ATCC 36583.
[11] abbreviates: ATCC90028, second batch, 24 h, 35° C., read-out: MIC, Candida albicans ATCC 90028.
Setting [12] is: ATCC90028, second batch, + 50% human serum, read-out: MIC, Candida albicans + 50% human serum ATCC 90028.
Where [13] appears, read: ATCC44858, second batch, read-out: MIC, Candida albicans ATCC 44858.
[14] abbreviates: ATCC36583, second batch, read-out: MIC, Candida glabrata ATCC 36583.

`CCCCCCc1ccc(-c2ccc(-c3ccc(C(=O)N[C@H]4C[C@@H](O)[C@@H](OCC[N+](C)(C)C)NC(=O)[C@@H]5[C@@H](O)[C@@H](C)CN5C(=O)[C@H]([C@@H](C)O)NC(=O)[C@H]([C@H](O)[C@@H](O)c5ccc(O)cc5)NC(=O)[C@@H]5C[C@@H](O)CN5C(=O)[C@H]([C@@H](C)O)NC4=O)cc3)cc2)cc1` [Example 16] (X2-[Orn(4R-OH,5R-OCH2CH2NMe3+)]T[Hyp][hTyr(3S-OH,4S-OH)]T[Pro(3S-OH,4S-Me)]; lactam 1-C): the MIC in experiment [1] (setting [7]) stood at 0.25 µg/mL; in experiment [1] (setting [8]), 0.5 µg/mL; in experiment [2] (setting [9]) it was 0.25 µg/mL; in experiment [3] (setting [10]), 0.25 µg/mL; in experiment [4] it was 0.25 µg/mL; in experiment [5], 0.25 µg/mL. In addition, the MIC in experiment [6] is 0.25 µg/mL.

As to `CCCCCNc1ccc(-c2ccc(-c3ccc(C(=O)N[C@H]4C[C@@H](O)[C@@H](OCC[N+](C)(C)C)NC(=O)[C@@H]5[C@@H](O)[C@@H](C)CN5C(=O)[C@H]([C@@H](C)O)NC(=O)[C@H]([C@H](O)[C@@H](O)c5ccc(O)cc5)NC(=O)[C@@H]5C[C@@H](O)CN5C(=O)[C@H]([C@@H](C)O)NC4=O)cc3)cc2)cc1` [Example 17] (X3-[Orn(4R-OH,5R-OCH2CH2NMe3+)]T[Hyp][hTyr(3S-OH,4S-OH)]T[Pro(3S-OH,4S-Me)]; lactam 1-C), the MIC in experiment [1] (setting [7]) was determined as 0.25 µg/mL; in experiment [1] (setting [8]), 0.25 µg/mL; in experiment [2] (setting [9]), 0.25 µg/mL; in experiment [3] (setting [10]) it was 0.5 µg/mL; in experiment [4], 0.5 µg/mL; in experiment [5], 0.25 µg/mL. For the same compound, the MIC in experiment [6] is 0.25 µg/mL.

For the compound `CCCCCOc1ccc(-c2ccc(-c3ccc(C(=O)N[C@H]4C[C@@H](O)[C@@H](OC[C@H](C)[N+](C)(C)C)NC(=O)[C@@H]5[C@@H](O)[C@@H](C)CN5C(=O)[C@H]([C@@H](C)O)NC(=O)[C@H]([C@H](O)[C@@H](O)c5ccc(O)cc5)NC(=O)[C@@H]5C[C@@H](O)CN5C(=O)[C@H]([C@@H](C)O)NC4=O)cc3)cc2)cc1` [Example 22], the MIC in experiment [1] (setting [11]) was found to be 0.25 µg/mL; in experiment [1] (setting [12]) it was 0.25 µg/mL; in experiment [2] (setting [13]), 0.25 µg/mL; in experiment [3] (setting [14]), 0.5 µg/mL; in experiment [4] (second batch), 0.5 µg/mL; in experiment [5] (second batch), 0.25 µg/mL. In addition, the MIC in experiment [6] came to 0.25 µg/mL.

Consider `CCCCCOc1ccc(-c2ccc(-c3ccc(C(=O)N[C@H]4C[C@@H](O)[C@@H](OC[C@@H](C)[N+](C)(C)C)NC(=O)[C@@H]5[C@@H](O)[C@@H](C)CN5C(=O)[C@H]([C@@H](C)O)NC(=O)[C@H]([C@H](O)[C@@H](O)c5ccc(O)cc5)NC(=O)[C@@H]5C[C@@H](O)CN5C(=O)[C@H]([C@@H](C)O)NC4=O)cc3)cc2)cc1` [Example 23], for which the MIC came to 0.25 µg/mL in experiment [1] (setting [11]); 0.25 µg/mL in experiment [1] (setting [12]); 0.25 µg/mL in experiment [2] (setting [13]); 0.25 µg/mL in experiment [3] (setting [14]); 0.25 µg/mL in experiment [4] (second batch); 0.125 µg/mL in experiment [5] (second batch). Moreover, the MIC in experiment [6] came out at 0.25 µg/mL.

Turning to `CCCCCOc1ccc(-c2ccc(-c3ccc(C(=O)N[C@H]4C[C@@H](O)[C@@H](O[C@@H](C)C[N+](C)(C)C)NC(=O)[C@@H]5[C@@H](O)[C@@H](C)CN5C(=O)[C@H]([C@@H](C)O)NC(=O)[C@H]([C@H](O)[C@@H](O)c5ccc(O)cc5)NC(=O)[C@@H]5C[C@@H](O)CN5C(=O)[C@H]([C@@H](C)O)NC4=O)cc3)cc2)cc1` [Example 24], the MIC in experiment [1] (setting [11]) is 0.25 µg/mL; in experiment [1] (setting [12]), 0.25 µg/mL; in experiment [2] (setting [9]), 0.125 µg/mL; in experiment [3] (setting [14]), 0.25 µg/mL; in experiment [4] (second batch), 0.5 µg/mL; in experiment [5] (second batch) it was 0.0625 µg/mL. The MIC in experiment [6] amounted to 0.125 µg/mL.

Take `CCCCCOc1ccc(-c2ccc(-c3ccc(C(=O)N[C@H]4C[C@@H](O)[C@@H](O[C@@H]5CC[N+](C)(C)C5)NC(=O)[C@@H]5[C@@H](O)[C@@H](C)CN5C(=O)[C@H]([C@@H](C)O)NC(=O)[C@H]([C@H](O)[C@@H](O)c5ccc(O)cc5)NC(=O)[C@@H]5C[C@@H](O)CN5C(=O)[C@H]([C@@H](C)O)NC4=O)cc3)cc2)cc1` [Example 25]: the MIC in experiment [1] (setting [11]) was 0.25 µg/mL; in experiment [1] (setting [12]) it was 0.125 µg/mL; in experiment [2] (setting [13]) it was 0.125 µg/mL; in experiment [3] (setting [14]), 0.25 µg/mL; in experiment [4] (second batch) it was 0.25 µg/mL; in experiment [5] (second batch), 0.25 µg/mL. The MIC in experiment [6] worked out at 0.25 µg/mL.
